From patent US10813920B2, “Drug for treating corneal endothelium by promoting cell proliferation or inhibiting cell damage” (THE DOSHISHA, priority 2013, dated 2020)

Legend:
[1] = tested on: human corneal endothelial cells; experiment: IL-6 production by RT-PCR and ELISA; type: cell-based; conditions: 10 μM, cultured for 20 days
Experimental: *PCR: PCR was carried out on each laminin chain and integrin chain by RT-PCR (reverse transcription polymerase chain reaction). A primer was purchased from the oligonucleotide synthesis company INVITROGEN and then desalinized for use. RNEasy Mini Kit (QIAGEN, catalog number: 74106) was used for extracting the entire RNA from cells. The Descemet's membrane including corneal endothelial cells were peeled off from a cornea for research purchased from the Seattle Eye Bank and the corneal endothelial cells were mechanically peeled off with the basal membrane for use in RNA extraction from the corneal endothelial cells. […]
Electrophoresis is applied to an amplified DNA fragment with 1.5% agarose gel (Nacalai Tesque, catalog number: 01149-76) and the fragment was detected by staining with ethidium bromide (Nacalai Tesque, catalog number: 14603-51).
*The amount of IL-6 expression of human corneal endothelial cells was quantified by RT-PCR by the following method. […] The reaction was stopped with 1M sulfuric acid to measure the absorbance at 450 nm with a plate reader. […] The amount of IL-6 protein in a culture supernatant collected after 7 days was quantified in accordance with the manual of DuoSetELISA human IL-6 (R & D Cat # DY206). […]

[2] = tested on: human corneal endothelial cells; experiment: Decrease in cell density of cultured human corneal endothelial cells (phase difference microscope); type: cell-based; conditions: 1, 3, 10 μM; after 20 days; vs control
From the text: For corneal endothelial cells, cell density decreases about 0.5% annually with age in a living organism. Further, the cell density also decreases due to various corneal endothelial diseases. Cell culture causes hypertrophy of cells and cellular as in a living organism and cellular senescence like reduction as in a living organism, which is a decrease in cell density. In this regard, the effect of p38 MAP kinase signal inhibition was studied on cellular senescence like reduction, which is a decrease in corneal endothelial cell density. […] Decrease in cell density due to culturing was inhibited and the cell density increased in an SB203580 concentration-dependent manner (bottom panel: vertical axis indicates cell density (mm^2) and the horizontal axis indicates, from the left, control, SB203580 1 μM, 3 μM, and 10 μM. ** indicates statistical significance (p<0.05) with respect to the control).
Cellular senescence-like decrease similar to a living organism, such as hypertrophy and decrease in density of cells, occurs from cell culture. In this regard, the effect of p38 MAP kinase signal inhibition on cellular senescence-like decrease such as decrease in corneal endothelial cell density was studied. […]

C[S+]([O-])c1ccc(-c2nc(-c3ccncc3)c(-c3ccc(F)cc3)[nH]2)cc1 (stereo not drawn) [SB203580, 4-(4-fluorophenyl)-2-(4-methylsulfinylphenyl)-5-(4-pyridyl)-1H-imidazole]
IL-6 production (PCR) ([1]; RT-PCR): decreases relative to the control
IL-6 production (ELISA) ([1]; supernatant collected after 7 days): decreases relative to the control
Decrease in cell density due to culture [2]: inhibited in a SB203580 concentration dependent manner
